Among the data in patent US12247019B2 (Centaurus Therapeutics, priority 2018, dated 2025) are inhibition and IC50 values, retold here.

As usually defined, the IC50 is the concentration that gives 50% inhibition.

The assay addresses T1, Des1 (Homo sapiens, UniProt O15121).
T1 sequence (O15121 1-323): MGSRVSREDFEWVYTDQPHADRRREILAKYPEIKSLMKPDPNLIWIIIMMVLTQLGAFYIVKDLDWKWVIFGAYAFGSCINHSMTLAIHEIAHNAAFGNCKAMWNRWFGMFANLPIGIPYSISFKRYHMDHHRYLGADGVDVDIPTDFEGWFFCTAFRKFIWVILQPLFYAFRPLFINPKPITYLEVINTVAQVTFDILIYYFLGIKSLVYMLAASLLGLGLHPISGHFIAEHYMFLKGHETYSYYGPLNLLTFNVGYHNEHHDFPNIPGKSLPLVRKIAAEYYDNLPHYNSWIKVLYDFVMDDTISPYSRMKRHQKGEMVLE
The assay is described as follows: Jurkat T cell measurement of conversion of dihydroceramide to ceramide (Des1 activity, LC-MS/MS of NBD-C6-ceramide). The format is cell-based. More on the design: endogenous in cells; host or cells: Jurkat clone E6-1. The conditions noted are these: Jurkat clone E6-1 cells, 10 μM NBD-C6-dihydroceramide, 3 hours at 37° C.; for inhibition at 0.5 µM: 0.5 uM compound, read-out: Des1 % Inhib (0.5 uM); for IC50: read-out: Des1 IC50. The protocol: Jurkat T Cell Measurement of Conversion of Dihydroceramide to Ceramide
Jurkat clone E6-1 cells were grown and then seeded at 10^6 cells/mL in a 96-well plate (400 μL in each well. The cells were administered 100 μL of cell culture media containing 50-μM NBD-C6-dihydroceramide (Des1 substrate), affording a final concentration of substrate of 10 μM. The cells were incubated with substrate at 4° C. for 30 minutes. Following the incubation at 4° C., the cell suspension was centrifuged at 1200 rpm for 3 minutes, and the cell pellet is resuspended in 400 μL of fresh media containing various concentrations of either fenretinide (known Des1 inhibitor control compound) or test article. The final concentrations of control compound and test compounds were tested in a range from 0-10 μM. The cells and compounds were incubated at 37° C. for 3 hours. Following the 3-hour incubation, the plate was centrifuged at 2500 g for 3 minutes at 4° C., followed by collection and transfer of 200 μL of the supernatant to a new 96-well plate with 300 μL of methanol an containing appropriate internal standards for liquid chromatography/tandem mass spectroscopy (LC/MS/MS) analysis (internal standard: 500 nM labetalol and 100 nM alprazolam). The samples were vortexed for 2 minutes followed by centrifugation at 3,220 g for 20 minutes. Following centrifugation, 200 μL of the supernatant was transferred to a new 96-well plate for LC-MS/MS analysis to determine the amount of NBD-C6-ceramide (Des1 product) produced. The assay was typically performed in duplicate. A reduction of at least 30% compared to vehicle control (0 μM test article) is indicative of an active compound, and a reduction of 75% compared to vehicle control is preferred.

As for `COc1ccc(N2CCN(C(=O)Nc3ccc(O)cn3)CC2)cc1` [Example 15, N-(5-hydroxypyridin-2-yl)-4-(4-methoxyphenyl)piperazine-1-carboxamide], the inhibition at 0.5 µM is 81.8% and the IC50 came out at 110 nM. For `O=S(=O)(Nc1ccc(O)cn1)N1CCC(c2ccc(Cl)cc2)CC1` [Example 71, 4-(4-chlorophenyl)-N-(5-hydroxypyridin-2-yl)piperidine-1-sulfonamide], in that order: 88% and 31 nM. For `O=C(Nc1ccc(O)cn1)OC1CCN(c2ccc(C(F)(F)F)cn2)CC1` [Example 60, 1-[5-(trifluoromethyl)pyridin-2-yl]piperidin-4-yl N-(5-hydroxypyridin-2-yl)carbamate], in that order: 96% and 3 nM. For `O=C(Nc1ccc(O)cn1)N1CCN(c2cccc(C(F)(F)F)n2)CC1` [Example 36, N-(5-hydroxypyridin-2-yl)-4-[6-(trifluoromethyl)pyridin-2-yl]piperazine-1-carboxamide], in that order: 94.9% and 23 nM.

As to `O=C(Nc1ccc(O)cn1)N1CCN(c2ccc(OC(F)(F)F)cn2)CC1` [Example 46, N-(5-hydroxypyridin-2-yl)-4-[5-(trifluoromethoxy)pyridin-2-yl]piperazine-1-carboxamide], the inhibition at 0.5 µM was found to be 94.5% and the concentration for half-maximal inhibition (IC50) was determined as 7 nM. Consider `Cn1cc(C2CCC(C(=O)Nc3ccc(O)cn3)CC2)cn1` (centres unmarked) [Example 90, N-(5-hydroxypyridin-2-yl)-4-(1-methyl-1H-pyrazol-4-yl)cyclohexane-1-carboxamide], for which the inhibition at 0.5 µM was 39.2%. Same read-out and setting: as for `N#Cc1ccc(N2CCN(C(=O)Nc3ccc(O)cn3)CC2)nc1` [Example 34, 4-(5-cyanopyridin-2-yl)-N-(5-hydroxypyridin-2-yl)piperazine-1-carboxamide], the figure is 85.4%. On the same count and under the same terms, as for `O=S(=O)(Nc1ccc(O)cn1)N1CCN(c2ccc(Cl)cc2)CC1` [Example 74, 4-(4-chlorophenyl)-N-(5-hydroxypyridin-2-yl)piperazine-1-sulfonamide], the figure is 72.8%. `O=C(Nc1ccc(O)cn1)N1CCN(c2cc(F)cc(F)c2)CC1` [Example 26, 4-(3,5-difluorophenyl)-N-(5-hydroxypyridin-2-yl)piperazine-1-carboxamide]: the IC50 worked out at 12 nM. For `O=C(Nc1ccc(O)cc1)N1CCN(c2ccc(C(F)(F)F)cc2)CC1` [Example 30, N-(4-hydroxyphenyl)-4-[4-(trifluoromethyl)phenyl]piperazine-1-carboxamide], the inhibition at 0.5 µM stood at 89.7% and the half-maximal inhibitory concentration (IC50) worked out at 150 nM. For `CCCCCCOC(=O)Nc1ccc(O)cn1` [Example 41, Hexyl N-(5-hydroxypyridin-2-yl)carbamate], in that order: 95.1% and 13 nM. For `CC(C)C1CCN(C(=O)Nc2ccc(O)cn2)CC1` [Example 9, N-(5-Hydroxypyridin-2-yl)-4-(propan-2-yl)piperidine-1-carboxamide], in that order: 93.8% and 17 nM. For `O=C(Nc1ccc(O)cn1)N1CCN(Cc2ccccc2)CC1` [Example 37, 4-benzyl-N-(5-hydroxypyridin-2-yl)piperazine-1-carboxamide], the inhibition at 0.5 µM was 80.7%. The same measure, in the same setting: the same measure for `O=S(=O)(Nc1ccc(O)cn1)C1CCN(c2ccccc2)CC1` [Example 64, N-(5-hydroxypyridin-2-yl)-1-phenylpiperidine-4-sulfonamide]: 19.2%. As for `O=C(Nc1ccc(O)cn1)N1CCN(c2cc(C(F)(F)F)ccn2)CC1` [Example 33, N-(5-hydroxypyridin-2-yl)-4-[4-(trifluoromethyl)pyridin-2-yl]piperazine-1-carboxamide], the inhibition at 0.5 µM turned out to be 93.1% and the concentration for half-maximal inhibition (IC50) was 7 nM. For `O=C(Nc1ccc(O)cn1)N1CCN(c2nc(F)c(F)cc2F)CC1` [Example 83, N-(5-hydroxypyridin-2-yl)-4-(3,5,6-trifluoropyridin-2-yl) piperazine-1-carboxamide], in that order: 94.9% and 65 nM.

With `O=C(Nc1ccc(O)cn1)N1CCN(c2ccc(F)cc2)CC1` [Example 5, 4-(4-Fluorophenyl)-N-(5-hydroxypyridin-2-yl)piperazine-1-carboxamide], the inhibition at 0.5 µM turned out to be 91.5% and the half-maximal inhibitory concentration (IC50) lay in the range of 32 to 51 nM.

Take `O=C(Nc1ccc(O)cc1)N1CCN(c2ccc(F)cc2)CC1` [Example 29, 4-(4-fluorophenyl)-N-(4-hydroxyphenyl)piperazine-1-carboxamide]: the inhibition at 0.5 µM is 58.6%. As to `O=C(Nc1ccc(O)cn1)N1CCC(Cc2ccccc2)CC1` [Example 8, 4-Benzyl-N-(5-hydroxypyridin-2-yl)piperidine-1-carboxamide], the inhibition at 0.5 µM was 94.9% and the IC50 turned out to be 13 nM. Turning to `O=C(Nc1ccc(O)cn1)OC1CCN(c2ccccn2)CC1` [Example 59, 1-(pyridin-2-yl)piperidin-4-yl N-(5-hydroxypyridin-2-yl)carbamate], the inhibition at 0.5 µM came out at 93.2% and the concentration for half-maximal inhibition (IC50) worked out at 43 nM. For `O=C(Nc1ccc(O)cn1)N1CCN(c2ccc(C(F)(F)F)cn2)CC1` [Example 18, N-(5-hydroxypyridin-2-yl)-4-[5-(trifluoromethyl)pyridin-2-yl]piperazine-1-carboxamide], in that order: 96.6% and 4 nM. Turning to `O=C(Nc1ccc(O)cn1)NC1CCN(c2ccc(Cl)cc2)CC1` [Example 52, 1-[1-(4-chlorophenyl)piperidin-4-yl]-3-(5-hydroxypyridin-2-yl)urea], the half-inhibitory concentration (IC50) came out at 29 nM. In the case of `O=C(Nc1ccc(O)cn1)N1CCN(c2ccc(F)nc2)CC1` [Example 50, 4-(6-fluoropyridin-3-yl)-N-(5-hydroxypyridin-2-yl) piperazine-1-carboxamide], the inhibition at 0.5 µM worked out at 83%. For the compound `O=C(Nc1ccc(O)cn1)N1CCCN(c2ccc(Cl)cn2)CC1` [Example 85, 4-(5-chloropyridin-2-yl)-N-(5-hydroxypyridin-2-yl)-1,4-diazepane-1-carboxamide], the half-maximal inhibitory concentration (IC50) is 55 nM. Still for that read-out and setting: as for `O=C(Nc1ccc(O)cc1)N1CCN(c2ccc(C(F)(F)F)cn2)CC1` [Example 31, N-(4-hydroxyphenyl)-4-[5-(trifluoromethyl)pyridin-2-yl]piperazine-1-carboxamide], the figure is 340 nM. `O=C(Nc1ccc(O)cn1)c1cccc(-c2ccccc2)c1` [Example 89, N-(5-hydroxypyridin-2-yl)-[1,1-biphenyl]-3-carboxamide]: the inhibition at 0.5 µM was 93% and the IC50 was 2.9 nM.

For `O=C(Nc1ccc(O)cn1)N1CCN(c2ncc(F)cc2F)CC1` [Example 79, 4-(3,5-difluoropyridin-2-yl)-N-(5-hydroxypyridin-2-yl) piperazine-1-carboxamide], the inhibition at 0.5 µM turned out to be 93.8% and the IC50 lay within 7.6 to 70 nM. For `O=S(=O)(Nc1ccc(O)cn1)C1CCN(c2ccc(Cl)cc2)CC1` [Example 68, 1-(4-chlorophenyl)-N-(5-hydroxypyridin-2-yl)piperidine-4-sulfonamide], in that order: 92.4% and 85 nM. Turning to `O=C(Nc1ccc(O)cn1)N1CCN(Cc2ccc(F)c(F)c2)CC1` [Example 77, 4-[(3,4-difluorophenyl)methyl]-N-(5-hydroxypyridin-2-yl)piperazine-1-carboxamide], the inhibition at 0.5 µM came to 91.9% and the half-maximal inhibitory concentration (IC50) was 35 nM.

On to `O=C(Nc1ccc(O)cn1)N1CCN(c2ccccc2)CC1` [Example 3, N-(5-Hydroxypyridin-2-yl)-4-phenylpiperazine-1-carboxamide], for which the inhibition at 0.5 µM came out at 87.9% and the IC50 worked out at 53 nM. For `O=C(Nc1ccc(O)cn1)N1CCN(c2ccc(F)cc2F)CC1` [Example 13, 4-(2,4-difluorophenyl)-N-(5-hydroxypyridin-2-yl)piperazine-1-carboxamide], in that order: 93% and 9 to 33 nM.

As for `O=S(=O)(Nc1ccc(O)cn1)C1CCN(c2ccc(C(F)(F)F)cc2)CC1` [Example 69, N-(5-hydroxypyridin-2-yl)-1-[4-(trifluoromethyl)phenyl]piperidine-4-sulfonamide], the inhibition at 0.5 µM worked out at 95% and the IC50 was determined as 40 nM.
